Laboratory results: patent US12157729B2, “Solid state forms of Belumosudil and Belumosudil salts” (TEVA PHARMACEUTICALS INTERNATIONAL GMBH, priority 2020, dated 2024)

Experiments:
[1] = Polymorphic stability at up to 100% relative humidity at room temperature; type: physicochemical
[2] = Hygroscopicity of the crystalline form; type: physicochemical; settings: crystalline solid form

| time over which the form is polymorphically stable [1] | hygroscopicity [2] | Substance |
| --- | --- | --- |
| at least 7 days | non-hygroscopic | Belumosudil Mesylate [Form M1] |
| at least 7 days | non-hygroscopic | Belumosudil Besylate [Form BS1] |
| at least 7 days | non-hygroscopic | Belumosudil Tosylate [Form T1] |
